Results on nine compounds are retold here after patent US10829453B2, “Antagonists of the kappa opioid receptor” (University of Kansas, priority 2014, dated 2020).

The structures appear in SMILES notation. Structures can show the parent of a compound that is named as a salt.

The target in data set [1] is T1, human kappa opioid receptors (Homo sapiens, UniProt P41145).
T1 construct: HA; expressed in transfected cells; host or cells: Chinese hamster ovary (CHO) cells, virally transfected
Description: [35S]GTPγS binding (G protein coupling) assay, antagonism of U69,593. Type of data set: biochemical. The following applies: CHO-hKOR membranes, 100 nM U69,593, n ≥ 3; for IC50: read-out: IC50 (nM) ± S.E.M. [35S]GTPγS. The method, then:
(§1) Chinese hamster ovary (CHO) cells were virally transfected to express HA-tagged recombinant human kappa opioid receptors (CHO-hKOR cell line) and maintained in DMEM/F-12 media (Invitrogen) supplemented with 10% fetal bovine serum, 1% penicillin/streptomycin, and 500 μg/ml geneticin as described in Schmid, C. L.; Streicher, J. M.; Groer, C. E.; Munro, T. A.; Zhou, L.; Bohn, L. M. Functional selectivity of 6′-guanidinonaltrindole (6′-GNTI) at kappa opioid receptors in striatal neurons. […] A DiscoveRx PathHunter™ U2OS cell line expressing βarrestin2 and hKOR (U2OS-hKOR-βarrestin2-DX) was purchased from DiscoveRx Corporation (Fremont, Calif.) and maintained MEM with 10% fetal bovine serum, 1% penicillin/streptomycin, 500 μg/ml geneticin and 250 μg/ml hygromycin B. All cells were grown at 37° C. (5% CO2 and 95% relative humidity).
Briefly, cells were serum starved for 1 hour and membranes were prepared. Each reaction was performed at room temperature and contained 15 μg of membrane protein, 40 μM GDP, ˜0.1 nM [^35S]GTPγS and increasing concentrations of compounds in assay buffer (50 mM Tris-HCl, pH 7.4, 100 mM NaCl, 5 mM MgCl2, 1 mM EDTA). Directly after the addition of test compounds, 100 nM U69,593 was added to yield a total volume of 200 μL. After 1 hour, reactions were quenched by rapid filtration through GF/B filters and radioactivity was counted with a TopCount NXT high throughput screening microplate scintillation and luminescence counter (PerkinElmer Life Sciences).
(§2) All compounds were run in parallel assays in 2-4 replicates per individual experiment. All studies were performed n≥3 independent experiments in multiple replicates. For determination of antagonist inhibition, each individual experiment was normalized to the percentage of maximal U69,593 stimulation. The efficacy and potency values were obtained from the averages of the nonlinear regression analysis performed on each individual curve and are reported as the mean±S.E.M.

In data set [2] the target is T1, human kappa opioid receptors. Description: In-cell western ERK1/2 phosphorylation, inhibition of U69,593 induced ERK phosphorylation. The format is cell-based. The following applies: hKOR-CHO cells, 100 nM U69,593, n ≥ 3; for IC50: read-out: IC50 (nM) ± S.E.M. ERK. The method, then:
as §1
Briefly, hKOR-CHO cells were plated in 384-well plate at 15,000 cells per well and incubated at 37° C. overnight. After an hour serum starve, cells were treated with compound followed by the addition of 100 nM U69,593 and a 10 minute incubation at 37° C. Cells were fixed, permeabilized, blocked, and stained with primary antibodies for phosphorylated ERK1/2 and total-ERK1/2 (1:300 and 1:400, respectively) at 4° C. overnight. Cells then incubated with Li-Cor secondary antibodies (anti-rabbit IRDye800CW, 1:500; anti-mouse IRDye680LT, 1:1500) and imaged with the Odyssey Infrared Imager (Li-Cor Biosciences, Lincoln, Nebr.) at 700 and 800 nm.
as §2

The target of the next data set is T2, hKOR (Homo sapiens, UniProt P41145).
T2 construct: host or cells: U2OS (PathHunter U2OS-hKOR-βarrestin2-DX), purchased engineered cell line
Description: βArrestin2 recruitment (DiscoveRx PathHunter) assay. Type of data set: cell-based. The following applies: for β arrestin 2 Inhibition (% U69,593 Stimulation) 1 μm: compound at 1 μm; for β arrestin 2 Inhibition (% U69,593 Stimulation) 1 μm / β arrestin 2 Inhibition (% U69,593 Stimulation) 10 Nm / β arrestin 2 Inhibition (% U69,593 Stimulation) 100 Nm: set concentration of U69,593; for β arrestin 2 Inhibition (% U69,593 Stimulation) 10 Nm: compound at 10 Nm; for β arrestin 2 Inhibition (% U69,593 Stimulation) 100 Nm: compound at 100 Nm; for IC50: read-out: IC50 (nM) ± S.E.M. βarr2. The method, then:
as §1
Briefly, 5,000 cells/well were plated overnight in Opti-MEM containing 1% fetal bovine serum, 1% penicillin/streptomycin. Cells were pretreated with antagonist for 15 min at 37° C. followed by the addition of 1 μM U69,593 and a 90 minute incubation at 37° C. PathHunter™ detection reagent was added and cells incubated at room temperature for 60 minutes. Chemiluminescence was detected using a SpectraMax® M5e Multimode Plate Reader (Molecular Devices). βarrestin2 recruitment assays were also performed using an imaging platform (Cellomics) to visulalize translocation of a fluorescent protein tagged βarrestin2 to the membrane of KOR expressing U2OS cells.
as §2
(In general: Arrestin recruitment assays detect the binding of arrestin to an activated receptor.)

Another data set concerns C57BL/6 mice. Description: Locomotor activity in open field, alone and against U50,488. Type of data set: in vivo.
Data set [3] is described as follows: Concentrations in plasma and brain tissue of mice after a single IP dose. The settings on record: single 10 mg/kg IP.
The conditions of data set [4]: mouse brain, single administration; cited from earlier work.
Setting [5] is: U2OS-hKOR-βarrestin2-DX cells, 1 μM U69,593, n ≥ 3.

T1 sequence (P41145 whole entry): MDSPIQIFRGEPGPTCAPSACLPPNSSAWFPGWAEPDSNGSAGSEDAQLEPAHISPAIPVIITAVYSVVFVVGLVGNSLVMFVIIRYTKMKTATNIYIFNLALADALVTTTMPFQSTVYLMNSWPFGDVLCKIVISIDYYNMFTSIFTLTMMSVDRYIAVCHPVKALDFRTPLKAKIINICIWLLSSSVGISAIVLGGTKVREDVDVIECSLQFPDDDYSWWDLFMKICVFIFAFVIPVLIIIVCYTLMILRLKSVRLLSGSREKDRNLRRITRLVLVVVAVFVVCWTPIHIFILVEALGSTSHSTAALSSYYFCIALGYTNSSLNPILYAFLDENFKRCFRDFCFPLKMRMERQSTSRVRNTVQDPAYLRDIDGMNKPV
T2 sequence (P41145 whole entry): as above

In the case of `Cc1ccc(S(=O)(=O)N(C)Cc2ccc(C(=O)N(C)CCN(Cc3ccccc3)C(C)C)cc2)cc1` [Compound 1a, N-(2-(Benzyl(isopropyl)amino)ethyl)-N-methyl-4-((N,4-dimethylphenylsulfonamido)methyl)benzamide, reference compound], in data set [1], the “IC50 (nM) ± S.E.M. [35S]GTPγS” value was “inactive”. The “IC50 (nM) ± S.E.M. ERK” value in data set [2] was “inactive”. Besides, on hKOR (setting [5]), the “IC50 (nM) ± S.E.M. βarr2” value was “inactive”.
Turning to `COc1ccc(CN(CCNC(=O)c2ccc3c(c2)CCN(S(=O)(=O)c2ccc(C)cc2)C3)C(C)(C)C)cc1` [Compound 1b, N-(2-(tert-butyl(4-methoxybenzyl)amino)ethyl)-2-tosyl-1,2,3,4-tetrahydroisoquinoline-6-carboxamide], on hKOR, the “β arrestin 2 Inhibition (% U69,593 Stimulation) 1 μm” value is 0.0 % U69,593 Stimulation, the “β arrestin 2 Inhibition (% U69,593 Stimulation) 10 Nm” value was 0.0 % U69,593 Stimulation and the “β arrestin 2 Inhibition (% U69,593 Stimulation) 100 Nm” value is reported as 0.8 % U69,593 Stimulation.
As for `Cc1cc(C)c(S(=O)(=O)N2CCc3cc(C(=O)NCCN(Cc4ccccc4)C(C)C)ccc3C2)c(C)c1` [Compound 1c, N-(2-(Benzyl(isopropyl)amino)ethyl)-2-(mesitylsulfonyl)-1,2,3,4-tetrahydroisoquinoline-6-carboxamide], the IC50 is 113 ± 42 nM in data set [1], 1120 nM in data set [2] and 930 ± 150 nM on hKOR (setting [5]).
On to `CCc1ccc(S(=O)(=O)N2CCc3cc(C(=O)NCCN(Cc4ccc(Br)cc4)C(C)C)ccc3C2)cc1` [Compound 1g, N-(2-((4-Bromobenzyl)(isopropyl)amino)ethyl)-2-((4-ethylphenyl)sulfonyl)-1,2,3,4-tetrahydroisoquinoline-6-carboxamide], for which the concentration for half-maximal inhibition (IC50) in data set [1] amounted to 33 ± 11 nM; in data set [2], 314 ± 56 nM; at hKOR (setting [5]), 350 ± 68 nM.
With `Cc1ccc(S(=O)(=O)N2CCc3cc(C(=O)NCCN(Cc4ccccc4)C(C)(C)C)ccc3C2)cc1` [Compound 1h, N-(2-(Benzyl(tert-butyl)amino)ethyl)-2-tosyl-1,2,3,4-tetrahydroisoquinoline-6-carboxamide], the IC50 came to 5.28 ± 0.6 nM in data set [1], 49.1 ± 9.7 nM in data set [2] and 104 ± 8.2 nM at hKOR (setting [5]).
Consider `Cc1ccc(S(=O)(=O)N2CCc3cc(C(=O)NCCN(Cc4ccc(Cl)cc4)C(C)(C)C)ccc3C2)cc1` [Compound 1l, N-(2-((4-Chlorobenzyl)(tert-butyl)amino)ethyl)-2-tosyl-1,2,3,4-tetrahydroisoquinoline-6-carboxamide], for which the “effect of pretreatment on U50,488 hypolocomotion” value with C57BL/6 mice (10-minute pretreatment, 10 mg/kg i.p., vs vehicle pretreatment followed by U50,488, FIG. 3) is “prevents the development of U50,488 hypolocomotion”. Besides, the “suppression of locomotor (ambulatory) activity compared to vehicle” value in the data set with C57BL/6 mice (C57BL/6 mice, open field, 1 hour, FIG. 2) was “not to suppress activity compared to vehicle”. For the same compound, the “clearance from brain tissue” value in data set [3] (4h measurement) is on record as “almost fully cleared”. In addition, in data set [3] (brain tissue, within 0.5 h), the “crossing of the blood brain barrier into the CNS” value is given as “cross the blood brain barrier into the CNS at concentrations similar to norBNI”. Also, at hKOR, the “β arrestin 2 Inhibition (% U69,593 Stimulation) 1 μm” value is on record as 1.5 % U69,593 Stimulation, the “β arrestin 2 Inhibition (% U69,593 Stimulation) 10 Nm” value is given as 29.9 % U69,593 Stimulation and the “β arrestin 2 Inhibition (% U69,593 Stimulation) 100 Nm” value is given as 0.4 % U69,593 Stimulation.
For `Cc1ccc(S(=O)(=O)N2CCc3cc(C(=O)NCCN(Cc4ccc(Br)cc4)C(C)(C)C)ccc3C2)cc1` [Compound 1m, N-(2-((4-Bromobenzyl)(tert-butyl)amino)ethyl)-2-tosyl-1,2,3,4-tetrahydroisoquinoline-6-carboxamide], the IC50 in data set [1] stood at 2.9 ± 1.2 nM; in data set [2], 87 ± 17 nM; on hKOR (setting [5]), 93 ± 30 nM.
For `Cc1cc(C)c(S(=O)(=O)N2CCc3cc(C(=O)NCCN(Cc4ccc(Br)cc4)C(C)(C)C)ccc3C2)c(C)c1` [Compound 1n, N-(2-((4-Bromobenzyl)(tert-butyl)amino)ethyl)-2-(mesitylsulfonyl)-1,2,3,4-tetrahydroisoquinoline-6-carboxamide] the same measures were 106 ± 16 nM, 1340 nM and 710 ± 150 nM.
On to `Oc1ccc2c3c1O[C@H]1c4[nH]c5c(c4C[C@@]4(O)[C@@H](C2)N(CC2CC2)CC[C@]314)C[C@@]1(O)[C@H]2Cc3ccc(O)c4c3[C@@]1(CCN2CC1CC1)[C@H]5O4` [norBNI, nor-binaltorphimine dihydrochloride, reference compound], for which the “time after which still detected in brain tissue” value in data set [4] was “more than 21 days”. In addition, in data set [3] (after 72 h), the “presence in brain tissue” value is listed as “still significantly present”. In addition, at hKOR, the “β arrestin 2 Inhibition (% U69,593 Stimulation) 1 μm” value is 0.9 % U69,593 Stimulation, the “β arrestin 2 Inhibition (% U69,593 Stimulation) 10 Nm” value is listed as 0.1 % U69,593 Stimulation and the “β arrestin 2 Inhibition (% U69,593 Stimulation) 100 Nm” value was 0.6 % U69,593 Stimulation.

For orientation: IC50 means the point on the concentration scale where inhibition reaches its midpoint.
